Reference: patent US4400384A, “5-o-Cyanobenzyl-4,5,6,7-tetrahydrothieno [3,2-c] pyridine methanesulfonate and other novel salts thereof” (Sanofi, S.A., priority 1980, dated 1983)
“Also recorded” adds a separate entry of the source.

Experiments:
[1] = tested on: blood-platelet aggregation (ADP); test: Inhibitor action on blood-platelet aggregation, ADP method (ex vivo after gastric tube dosing); assay type: in vivo, female rats of the Wistar type; conditions: 100 mg/Kg base equivalent at 48, 24 and 2 h before blood drawing
Procedure: (§1) The inhibitor action on blood-platelet aggregation of the salts of the present invention was determined by two different standard methods known to the art.
(§2) The first method, involving the use of ADP (adenosine diphosphate), is that of Ferrand J. C., Gaich C., Dumas, A.--EVALUATION DE L' EFFET ANTI-AGREGANT DE LA TICLOPIDINE PAR UNE TECHNIQUE SUR SANG TOTAL. COMM. SOCIETE DE BIOLOGIE DE TOULOUSE (TOULOUSE Feb. 9, 1978), RESUME IN: REV MED TOULOUSE, 1978, 14, (SUPPL. 5) 680, referred to hereinafter as the ADP method.
(§3) Groups of 10 female rats of the Wistar type were each dosed with one of the base or one of the salts of the invention and with the corresponding maleate salt of Amselem U.S. Pat. No. 4,097,482, at periods of 48 hours, 24 hours and 2 hours prior to drawing blood for testing by the ADP and collagen techniques referred to above. The active medicaments were administered by means of a gastric tube in the form of a 5% aqueous solution of gum arabic. A dosage level of 100 mg/Kg was used for the base, and for the salts an amount was used sufficient to provide the equivalent amount of the base portion of the salt.

[2] = tested on: blood-platelet aggregation (collagen); test: Inhibitor action on blood-platelet aggregation, collagen method (ex vivo after gastric tube dosing); assay type: in vivo, female rats of the Wistar type; conditions: 100 mg/Kg base equivalent at 48, 24 and 2 h before blood drawing, controls 2.53
Procedure: as §1
(§4) The second method is that described in Ferrand J. C., Lale A.--NUMERATION ET AGREGATION PLAQUETTAIRE A L AIDE DE L AUTOCOUNTER. APPLICATION A L ETUDE DE LA TICLOPIDINE. COMM. SYMPOSIUM TECHNICON INDUSTRIE (PARIS, June 15, 1978); Ferrand J. C., Lale A.--EVALUATION EX-VIVO DE L AGREGATION PLAQUETTAIRE PAR UNE TECHNIQUE AUTOMATIQUE SUR SANG TOTAL COMM. SOCIETE FRANCAISE DE BIOLOGIE CLINIQUE (PARIS Sept. 28, 1979); and J. C. Ferrand, A. Lale, D. Aubert and G. Barthelemy--APPRECIATION QUANTITATIVE DE L' ACTIVITE ANTI-AGREGANTE DE LA TICLOPIDINE PAR VOIE AUTOMATIQUE. COMM. REUNION DE L' ASOCIATION FRANCAISE DE PHARMACOLOGISTES DIJON (May 2-3, 1980), and is referred to hereafter as the collagen method.
as §3

Acute toxicity in mice = conditions: mouse, in vivo
Procedure: (§5) The preferred methanesulfonate salt of the present invention was tested for acute and sub-acute toxicity and the results obtained on rats and mice by oral, intravenous and intraperitoneal administration are set forth in the tables below.

Acute toxicity in rats = conditions: rat, in vivo
Procedure: as §5

rats = test: Sub-acute toxicity in rats, oral, 6 weeks; assay type: in vivo
Procedure: These tests were carried out on four groups of 30 rats, 15 males and 15 females in each group; the rats all being type SPF adults. Administration was by the oral route, carried out 5 days per week for a period of 6 consecutive weeks.

dogs = test: Toxicity by oral administration in dogs; assay type: in vivo; conditions: 33 to 100 mg/Kg/day, 24 days
Procedure: Further toxicity investigations were carried out on the MS salt by oral administration in dogs. Two groups of 10 adult dogs were selected; one group being used as the control and the second group having the MS salt administered orally in increasing dosages as follows: […]

[3] = tested on: blood-platelet aggregation; test: Inhibition of blood-platelet aggregation (general statement); assay type: in vivo; conditions: result in words
Procedure: as §1, §2
as §4, with “method. […]” for “method.”

[4] = Anti-inflammatory activity; assay type: in vivo; conditions: result in words; listed as MS salt, methanesulfonate
Vasodilator activity = assay type: in vivo; conditions: result in words
Anti-thrombotic activity = conditions: in vivo
red globules = test: Anti-sludge activity in vitro on red globules; assay type: cell-based
[5] = tested on: central nervous system activity of chloral and "Nembutal"; test: Potentiation of central nervous system activity of chloral and Nembutal; assay type: in vivo
[6] = tested on: musculotropic isolated intestine; test: Anti-spasmodic activity on isolated intestine
Diuretic activity = conditions: in vivo
rabbit = test: Cardiovascular action in anesthetized rabbit; assay type: in vivo; conditions: perfusions at high dosages
human patients = test: Clinical study, first series: tolerance; assay type: in vivo; conditions: oral capsules, 350 to 1400 mg per day, 3 weeks, 12 patients
Procedure: The MS salt has been administered to human patients orally in the form of capsules each containing 175 mg of the active salt. Twelve patients were treated in four groups; one group receiving 2 capsules per day (350 mg); a second group receiving 4 capsules per day (700 mg); a third group receiving 6 capsules per day (1050 mg); and the fourth group receiving 8 capsules per day (1400 mg). This regimen was continued for 3 weeks.

patients = test: Clinical study, second series: tolerance; assay type: in vivo, human; conditions: oral capsules, 700 mg per day, 7 days plus morning of 8th day, 11 patients
Procedure: (§6) In a second series of tests, the MS salt was again administered orally in the form of capsules containing 175 mg of the active salt. Eleven patients were treated, each patient receiving 4 capsules per day containing a total of 700 mg of MS salt divided in two portions of 350 mg morning and evening, after meals, for 7 days, and on the 8th day in the morning only. Therefore, the total amount of active ingredient (MS salt) was 5250 mg to each subject.

[7] = tested on: blood-platelet aggregation; test: Clinical study, second series: inhibition of blood-platelet aggregation; assay type: in vivo, human; conditions: oral capsules, 700 mg per day, 7 days plus morning of 8th day, 11 patients
Procedure: as §6

[8] = oral, 50, 150, 300 mg/Kg, 5 days per week, 6 weeks

SMILES: CS(=O)(=O)O.N#Cc1ccccc1CN1CCc2sccc2C1 [Methanesulfonate, 5-o-Cyanobenzyl-4,5,6,7-tetrahydrothieno [3,2-c] pyridine methanesulfonate]
- BLOOD PLATELET AGGREGATION, ADP, 1 mn 30 s ([1]; 1 mn 30 s, controls 0.29): 0.73
- BLOOD PLATELET AGGREGATION, ADP, 3 mn ([1]; 3 mn, controls 0.40): 0.88
- BLOOD PLATELET AGGREGATION, COLLAGEN [2]: 0.59
- LD50 at 8 h (Acute toxicity in mice; intravenous, read-out: LD50, intravenous, mice): 134 mg/kg
- LD50 at 8 h (Acute toxicity in mice; ip, intraperitoneal, read-out: LD50, intraperitoneal, mice): 898 mg/kg
- LD50 at 8 h (Acute toxicity in mice; oral, read-out: LD50, oral, mice): 883 mg/kg
- LD50 at 8 h (Acute toxicity in rats; intravenous, read-out: LD50, intravenous, rats): 80.2 mg/kg
- LD50 at 8 h (Acute toxicity in rats; ip, intraperitoneal, read-out: LD50, intraperitoneal, rats): 719 mg/kg
- toxicity and tolerance (overall) (rats; conclusion from acute and sub-acute tests): low toxicity and good tolerance
- microscopic examination of principal organs (rats; end of test period or 15 days thereafter): normal in appearance with exception of some signs of gastric intolerance
- histological examination of the organs (rats; oral, 6 weeks): good tolerance
- behavior of the dosed animals (rats; [8]): No significant modification of the behavior
- death attributable to administration (rats; [8]): nor was there any death attributable to the administration of the MS salt
- deaths attributable to the salt (dogs): No deaths occurred which were attributable to the MS salt
- hematological, blood biochemical or urinary functions (dogs): No significant variations
- vomiting (dogs): some of the dogs experienced some vomiting
- inhibitor action against blood-platelet aggregation [3]: excellent inhibitory action against blood-platelet aggregation
- anti-inflammatory activity [4]: free of anti-inflammatory or vasodilator activity as is the MS salt; also recorded: without anti-inflammatory activity
- peripheral and cerebral vasodilator activity (Vasodilator activity): lacks the peripheral and cerebral vasodilator activity
- vasodilator action (Vasodilator activity; listed as MS salt, methanesulfonate): without causing vasodilator action; also recorded: free of anti-inflammatory or vasodilator activity as is the MS salt
- anti-thrombotic activity (Anti-thrombotic activity): exhibits anti-thrombotic activity
- anti-sludge activity in vitro (red globules): anti-sludge activity in vitro on red globules
- potentiation of central nervous system activity of Nembutal ([5]; "Nembutal" (Ca or Na pentobarbital)): does potentialize the central nervous system activity
- potentiation of central nervous system activity of chloral ([5]; chloral): does potentialize the central nervous system activity of chloral
- anti-spasmodic activity [6]: exhibit anti-spasmodic activity
- diuretic activity (Diuretic activity): free of diuretic activity
- cardiovascular depressive action (rabbit): cardiovascular depressive action
- clinical tolerance (human patients): Clinical tolerance was excellent
- side effects or incidents (human patients): no side effects or incidents being noted
- clinical tolerance (patients): Clinical tolerance was excellent
- inhibitory activity on blood-platelet aggregation in patients [7]: very effective inhibitory activity on blood-platelet aggregation
